In patent US5576319A, “Pyrrolo-pyridine derivatives” (Merck, Sharp & Dohme Ltd., priority 1994, dated 1996):
Like-named read-outs stand apart in the source and are kept apart here. Each block holds one compound with its values, some of them ahead of it.

Key:
[1] = target: T1, human dopamine D4 receptor subtype (Homo sapiens, UniProt P21917); assay: [3H]-Spiperone binding, displacement from human dopamine D4 receptor subtype expressed in clonal cell lines
T1 sequence (P21917 1-419): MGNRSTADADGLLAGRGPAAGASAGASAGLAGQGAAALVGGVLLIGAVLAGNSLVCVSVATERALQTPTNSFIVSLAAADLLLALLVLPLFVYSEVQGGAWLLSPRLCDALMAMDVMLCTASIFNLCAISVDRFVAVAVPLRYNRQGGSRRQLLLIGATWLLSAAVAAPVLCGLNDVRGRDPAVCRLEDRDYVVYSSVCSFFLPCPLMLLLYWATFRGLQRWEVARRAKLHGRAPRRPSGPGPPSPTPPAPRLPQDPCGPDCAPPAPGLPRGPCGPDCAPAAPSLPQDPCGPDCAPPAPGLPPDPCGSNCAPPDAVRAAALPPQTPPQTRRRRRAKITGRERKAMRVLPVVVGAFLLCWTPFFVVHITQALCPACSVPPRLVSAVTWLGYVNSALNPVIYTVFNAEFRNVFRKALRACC

[2] = target: T2, human dopamine D2 receptor subtype (Homo sapiens, UniProt P14416); assay: [3H]-Spiperone binding, displacement from human dopamine D2 receptor subtype expressed in clonal cell lines
T2 construct: expressed in transfected cells
T2 sequence (P14416 whole entry): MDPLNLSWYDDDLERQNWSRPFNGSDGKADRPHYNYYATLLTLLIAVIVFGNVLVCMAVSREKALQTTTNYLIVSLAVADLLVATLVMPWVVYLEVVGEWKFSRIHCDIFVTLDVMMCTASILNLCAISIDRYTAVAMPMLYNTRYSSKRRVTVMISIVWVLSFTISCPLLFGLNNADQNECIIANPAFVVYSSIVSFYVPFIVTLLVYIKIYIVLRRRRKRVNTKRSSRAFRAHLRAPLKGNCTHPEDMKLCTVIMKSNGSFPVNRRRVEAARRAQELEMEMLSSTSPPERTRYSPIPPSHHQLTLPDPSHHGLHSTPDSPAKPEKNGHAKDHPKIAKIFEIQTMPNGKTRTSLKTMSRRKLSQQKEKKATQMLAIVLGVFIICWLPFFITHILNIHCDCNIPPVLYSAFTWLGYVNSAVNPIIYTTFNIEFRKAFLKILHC

rats = assay: Sedation: spontaneous motor activity of rats in novel cages with photocells (number of cage crossings); type: in vivo; details: rat
From the text: Representative compounds according to the invention have been tested for their effects on spontaneous motor activity occasioned by placing rats in novel cages equipped with photocells in order to determine the number of cage crossings. This is an art-recognised model of the sedation potential of a given test compound.

rat = assay: Extrapyramidal disorders: apomorphine-induced stereotypy in the rat; type: in vivo
From the text: 2. Extrapyramidal Disorders
Representative compounds according to the invention have been tested for their effect on apomorphine-induced stereotypy in the rat. This is an art-recognised model of the potential to induce extrapyramidal side-effects.

- Ki ([1]; human D4, clonal cell line membranes, 0.2 nM [3H]-spiperone): 1.3 nM
- D4 :D2 ratio ([1]; ratio of Ki values, selectivity for D4 over D2, 60 min): greater than 1150
- Ki ([2]; human D2, clonal cell line membranes, 0.2 nM [3H]-spiperone, read-out: Ki value for the D2 subtype): > 1500 nM
SMILES: COc1ccc(N2CCN(Cc3c[nH]c4ncccc34)CC2)cc1 [Example 2, 3-(4-[4-Methoxyphenyl]piperazin-1-yl)methyl-1H-pyrrolo[2,3-b]pyridine]

SMILES: Clc1ccc(N2CCN(Cc3c[nH]c4ncccc34)CC2)cc1 [Example 5, 3-(4-[4-Chlorophenyl]piperazin-1-yl)methyl-1H-pyrrolo[2,3-b]pyridine]
- sedation (spontaneous motor activity) (rats; doses of up to 10-30 mg/kg): no evidence for sedation
- Ki [2]: 860 nM
- potential to induce extrapyramidal side-effects (apomorphine-induced stereotypy) (rat; doses up to 1.0 mg/kg): no potential to induce the extrapyramidal side-effects

SMILES: O=C(CCCN1CCC(O)(c2ccc(Cl)cc2)CC1)c1ccc(F)cc1 [haloperidol, reference compound]
- sedation (spontaneous motor activity) (rats; dose of 1 mg/kg): marked sedation
- potential to elicit extrapyramidal side-effects (apomorphine-induced stereotypy) (rat; doses of 0.5 and 1.0 mg/kg): significant potential to elicit extrapyramidal side-effects
